In patent publication US20020065236A1, “CpG reduced plasmids and viral vectors” (priority 1998, published 2002):

Columns and labels:
BALB/c mice [1] = assay: Lung histopathology after intranasal instillation; details: 2 days post-instillation, blinded
Text: The histopathological changes within BALB/c mouse lungs following administration of either cationic lipid alone, pDNA alone, or cationic lipid:pDNA complexes were also examined. […] Mice were sacrificed 2 days post-instillation and the lungs were processed for histological examination in a blinded manner.
Lungs were fixed by inflation at 30 cm of H2O pressure with 2% paraformaldehyde and 0.2% glutaraldehyde. Representative samples were taken from each lung lobe, embedded in glycol methacrylate, sectioned and stained with hematoxylin and eosin. Histopathology on the lung was evaluated in a blinded fashion and graded subjectively using a scale of 0 to 4, with a score of 0 indicating no abnormal findings and a score of 4 reflecting severe changes with intense infiltrates See Scheule et al., Hum.

BALB/c mice [2] = assay: Cytokine levels in BALF (ELISA) after intranasal instillation; details: for cytokine levels in BALF at higher concentrations of the compound: instilled with GL-67:pCFA-CAT; for inhibition of cytokine production in the lung: without affecting gene expression
Method: Cytokine levels in the mouse BALF were quantitated using enzyme-linked immunosorbent assay (ELISA) kits as specified by the manufacturers. IFN-γ, TNF-α, IL1-α, IL-1β, IL-10 and IL-6 ELISA kits were from Genzyme Corporation, mKC, MIP-2 and GM-CSF ELISA kits were from R&D Systems, and Leukotriene B4 ELISA kit was from Perseptive Diagnostics.
BALB/c mice were instilled intranasally with 100 μl of complex as described. […] The animals were euthanized and their lungs were lavaged 24 h post-instillation using phosphate-buffered saline (PBS). The recovered BALF were centrifuged at 1,500 rpm for 4 min, and the resulting supernatants were removed and frozen at −80° C. for subsequent cytokine analysis. The cell pellets were resuspended in PBS for microscopic determination of cell number and cell types.
Separate groups of mice were instilled with either (m)pDNA or unmethylated pDNA alone, or vehicle, and their bronchoalveolar lavage fluids collected for analysis at 24 h post-treatment.
The animals were euthanized and their lungs were lavaged 24 h post-instillation using phosphate-buffered saline (PBS). The recovered BALF were centrifuged at 1,500 rpm for 4 min., and the resulting supernatants were removed and frozen at −80° C. for subsequent cytokine analysis.
Cytokine levels were quantitated using enzyme-linked immunosorbent assay (ELISA) kits as specified by the manufacturer (Genzyme Corporation, Framingham, MA).

mouse spleen cells [3] = assay: IL-12 induction from mouse spleen cells; type: cell-based; details: for levels of IL-12 induction by GL-67:pCFA-CAT: addition of 10 μM of chloroquine or 1 μM of quinacrine; for levels of IL-12 induction by pCFA-CAT: co-addition of 10 μM of chloroquine or 1 μM of quinacrine, 24 hours
Method: 6-8 week old 8ALB/c mice were sacrificed by cervical dislocation. Spleens were excised and placed in sterile PBS on ice. To prepare single cell suspensions, the spleens were placed in a tissue culture dish in PBS and crushed between the frosted edges of two sterile microscope slides. Cells were pelleted by centrifugation at 1200 rpm for 8 min., and washed 3 times in PBS. After the final wash, the cells were resuspended in RPMI medium supplemented with 25 mM HEPES buffer, 10% fetal bovine serum, 2 mM L-glutamine, and 50 μM 2-mercaptoethanol (2-ME). The resuspended cells were then plated at 6×10^6 cells/ml/well in 24-well culture plates. Supernatant were collected 24 hr after addition of oligonucleotides or plasmid DNA for the measurement of cytokine (IL-12) production.

mouse spleen cells [4] = details: 10 μM chloroquine or 1 μM quinacrine
Method: Another strategy to reduce the stimulatory properties of the pDNA vector is to use specific inhibitors of 1 he CpG signaling pathway. […] These compounds were tested for their ability to inhibit the stimulatory properties of pDNA and cationic lipid-pDNA complexes in vitro and in the mouse lung.

Structure (SMILES) | lung inflammation (histopathology, score on a scale from 0 to 4) (BALB/c mice [1]) | levels of TNF-α, IFN-γ, IL-6 and murine KC (these four cytokines) in the BALF (BALB/c mice [2]; 24 h after intranasal instillation of the component alone) | contribution to the cytokine induction in the BALF (BALB/c mice [2]; with the exception of KC) | induction of IL-12 production from mouse spleen cells in vitro (mouse spleen cells [3]) | levels of IL-12 induction by GL-67:pCFA-CAT (mouse spleen cells [3]) | levels of IL-12 induction by pCFA-CAT (mouse spleen cells [3]) | effects on cell viability (mouse spleen cells [4]) | effects on expression of the CAT reporter gene (mouse spleen cells [4]) | cytokine levels in BALF at higher concentrations of the compound (BALB/c mice [2]) | inhibition of cytokine production in the lung (BALB/c mice [2])
CC(C)CCCC(C)C1CCC2C3CC=C4CC(OC(=O)N(CCCN)CCCCNCCCN)CCC4(C)C3CCC12C (stereo not shown) [GL-67] | scored slightly lower | low levels | did not contribute significantly | – | – | – | – | – | – | –
CCN(CC)CCCC(C)Nc1c2ccc(Cl)cc2nc2ccc(OC)cc12 (stereo not shown) [quinacrine] | – | – | – | greatly reduced | near background levels | near background levels | no discernible effects | no discernible effects | did not further decrease | 50%
CCN(CC)CCCC(C)Nc1ccnc2cc(Cl)ccc12 (stereo not shown) [chloroquine] | – | – | – | greatly reduced | near background levels | near background levels | – | no discernible effects | did not further decrease | 50%
